In patent publication US20230135501A1, “GENE THERAPY” (UCL BUSINESS LTD, priority 2020, published 2023):

Assays:
Format in all cases: cell-based
[1] = test system: porcine primary RPE cells; assay: POS-induced pseudopod/contractile cup formation, pMLC and POS centring at 30 min in primary porcine RPE cells
From the text: Fixation and processing cells and mouse tissue sections was as previously described in Zihni, C. et al (2017). The following antibodies were used: RPE65 mouse monoclonal (Millipore) 1/300 for immuno-fluorescence; p-MLC S19, mouse monoclonal (Cell Signaling Technology) immunofluorescence 1/100 and immunoblotting 1/1000; Dbl(3), rabbit polyclonal (Santa Cruz Biotechnology) immunofluorescence 1/200; MRCKβ, rabbit polyclonal (Santa Cruz Biotechnology) immunofluorescence 1/200 and immunoblotting 1/500; anti-Cdc42-GTP mouse monoclonal (NewEast Biosciences) immunofluorescence 1/50; N-WASP, rabbit polyclonal (Santa Cruz Biotechnology) immunofluorescence and immunoblotting 1/1000; MerTK rabbit monoclonal (Abcam 52968) immunofluorescence 1/100; Integrin αVβ5, mouse monoclonal (Clone P1F6) (Abcam 24694) immunofluorescence 1/100; pFAK Y397, rabbit polyclonal (Invitrogen) immunofluorescence 1/100; pSrc Y416, rabbit polyclonal (Cell Signaling Technology) immunofluorescence 1/100; Phalloidin-Atto 647 reagent was obtained from Sigma and diluted 1/1000. Affinity-purified and cross-adsorbed Alexa488-, Cy3- and Cy5-labelled donkey anti-mouse, rabbit, or goat secondary antibodies were from Jackson ImmunoResearch Laboratories (1/300 diluted from 50% glycerol stocks). Affinity-purified HRP-conjugated goat anti mouse and rabbit, and donkey anti goat secondary antibodies 1/5000 were also from Jackson ImmunoResearch Laboratories (1/5000 diluted from 50% glycerol stocks). For immunofluorescence analysis cells and tissues were mounted using Prolong Gold antifade reagent (Life technologies) and imaging was performed using Zeiss 700 and 710 confocal microscopes and a 64× oil lens/NA1.4. Images were processed using Zeiss Zen 2009 and Adobe Photoshop CS5 and 10 software. Co-immunoprecipitation and immunoblotting were carried out using methods previously described and were repeated at least three times.

Primary porcine RPE = assay: POS/Gas-6 stimulated pseudopod assembly in serum-free primary porcine RPE; conditions: serum-free medium 4 h, 30 min stimulation with POS-FITC, with Gas-6
Procedure: Primary porcine RPE was cultured in serum-free medium, to eliminate effects of MerTK ligands, for 4 h followed by treatment with either N-WASP or MRCK inhibitor and a 30 min stimulation with POS-FITC in the absence or presence of Gas-6, which links MerTK to POS.

[2] = test system: porcine primary RPE cells; assay: POS phagocytosis (internalization) in primary porcine RPE cells; parameters: ability of RPE cells to internalize POS (confocal z-sections): dose or concentration left out as unconfirmed
From the text: Wilcoxon tests also were used where indicated.
The inventors next asked whether MRCKβ is directly involved in POS internalization using porcine primary RPE cells. […] MRCK was not required for POS to attach to the RPE, indicating integrin αVβ5-POS binding was not affected (FIGS. 2b and 2f). POS binding stimulates the formation of extended pseudopods that retract with internalization of POS. […] Thus, MRCKβ controls POS-induced membrane remodelling during phagocytic cup formation and particle internalization.

**Q.** How did the “POS centring at pseudopods/cups” value ([1]; POS for 30 minutes) turn out when `O=C(Nc1cn[nH]c1-c1ccccn1)c1nn(C2CCNCC2)cc1Cl` [BDP5290] was run?
**A.** un-centred POS

**Q.** And the “efficiency of POS binding to RPE cells” value ([1]; POS for 30 minutes)?
**A.** unaltered

**Q.** And the “pMLC activity/staining at pseudopods/cups” value ([1]; POS for 30 minutes)?
**A.** lack pMLC activity

**Q.** What about the “MLC phosphorylation after blebbistatin washout” value ([1]; washout of blebbistatin in the presence of the MRCK inhibitor) of the same molecule?
**A.** inhibition of MLC phosphorylation

**Q.** What about the POS-dependent pseudopod assembly (Primary porcine RPE) of the same molecule?
**A.** did not inhibit

**Q.** What about the “phagocytosis of GOLD-labelled POS (transmission electron microscopy)” value ([2]; GOLD-labelled POS, TEM) of the same molecule?
**A.** inhibition of phagocytosis

**Q.** What about the “ability of RPE cells to internalize POS (confocal z-sections)” value ([2]; POS-FITC 1 h followed by 2 h chase) of the same molecule?
**A.** strongly inhibited

**Q.** With `Cc1ccc2c(c1)C(=O)C1(O)CCN(c3ccccc3)C1=N2` (stereo not shown) [blebbistatin, Blebbistatin] as the molecule, how does the pseudopod/cup organization ([1]; Blebbistatin used at 10 μM) read?
**A.** disorganised pseudopods

**Q.** What about the “POS centring at pseudopods/cups” value ([1]; POS for 30 minutes) of the same molecule?
**A.** loss of efficient POS centring

**Q.** With `CN(C)C[C@H](O)Cn1c2ccc(Br)cc2c2cc(Br)ccc21` (racemic) [Wiskostatin] as the molecule, how does the “pMLC activity/staining at pseudopods/cups” value ([1]; POS for 30 minutes) read?
**A.** reduced

**Q.** What about the “less F-actin in pseudopods when compared to control cells” value ([1]; Wiskostatin used at 5 μM) of the same molecule?
**A.** approx. 50%

**Q.** What about the “number of cells forming normal pseudopods” value ([1]; Wiskostatin used at 5 μM) of the same molecule?
**A.** drastic reduction

B1: Gas-6: growth arrest-specific 6, soluble protein which links MerTK to POS (protein, UniProt Q14393 31-678, looked up)
Growth arrest-specific …: ALLPAREATQFLRPRQRRAFQVFEEAKQGHLERECVEELCSREEAREVFENDPETDYFYPRYLDCINKYGSPYTKNSGFATCVQNLPDQCTPNPCDRKGTQACQDLMGNFFCLCKAGWGGRLCDKDVNECSQENGGCLQICHNKPGSFHCSCHSGFELSSDGRTCQDIDECADSEACGEARCKNLPGSYSCLCDEGFAYSSQEKACRDVDECLQGRCEQVCVNSPGSYTCHCDGRGGLKLSQDMDTCEDILPCVPFSVAKSVKSLYLGRMFSGTPVIRLRFKRLQPTRLVAEFDFRTFDPEGILLFAGGHQDSTWIVLALRAGRLELQLRYNGVGRVTSSGPVINHGMWQTISVEELARNLVIKVNRDAVMKIAVAGDLFQPERGLYHLNLTVGGIPFHEKDLVQPINPRLDGCMRSWNWLNGEDTTIQETVKVNTRMQCFSVTERGSFYPGSGFAFYSLDYMRTPLDVGTESTWEVEVVAHIRPAADTGVLFALWAPDLRAVPLSVALVDYHSTKKLKKQLVVLAVEHTALALMEIKVCDGQEHVVTVSLRDGEATLEVDGTRGQSEVSAAQLQERLAVLERHLRSPVLTFAGGLPDVPVTSAPVTAFYRGCMTLEVNRRLLDLDEAAYKHSDITAHSCPPVEPAAA
**Q.** With B1 as the molecule, how does the POS-dependent pseudopod assembly (Primary porcine RPE) read?
**A.** sharp increase
